Type in all cases: cell-based
Test [1] deals with IL-6 (THP-1 cells). As to the kind of experiment: Inhibition of IL-6 in LPS-stimulated THP-1 monocytes (HTRF). The settings on record: Homo sapiens; for EC50: LPS 500 ng/mL, IL-6 by HTRF; for inhibition at 10 µM: LPS stimulated, IL-6, at 10 μM, read-out: percent inhibition at 10 μM (given for EC50 of >10 μM). Put shortly:
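IL-6 release was read as the HTRF 665/620 nm ratio after 22 h of 500 ng/mL LPS at 37 °C. Before stimulation, THP-1 cells kept 24 h in 1% FBS were exposed 2 h to a 10-point 1:3 compound series starting at 10 μM, in 0.1% DMSO. Four-parameter EC50s came from DMSO-normalized duplicates, with % inhibition at 10 μM reported beyond 10 μM.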
(In general: In TR-FRET formats the signal depends on donor and acceptor labels being close together.)

The subject of test [2] is SW480 colon cancer cells. As to the kind of experiment: Cell viability assay (CellTiter-Blue), four days. The settings on record: Homo sapiens, 96 h; for EC50: CellTiter-Blue cell viability; for inhibition at 10 µM: read-out: percent inhibition at 10 μM (given for EC50 of >10 μM). The method, boiled down: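 4-day exposure, 37 °C/5% CO2; ~2×10^3 SW480 cells/well; 8-pt 1:3 curve, 10–0.0045 μM, duplicates vs DMSO controls. Resazurin→resorufin fluorescence readout, ~3 h. EC50 by nonlinear fit; if >10 μM, % inhibition at 10 μM reported.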
On the technique in general: Resazurin is reduced to fluorescent resorufin, in cell work by metabolically active cells.

The subject of test [3] is primary human fibroblasts derived from IPF patients (LL29 cells), α-smooth muscle actin (αSMA). As to the kind of experiment: Inhibition of the fibrotic process: TGF-β1-treated primary human fibroblasts from IPF patients, αSMA staining. The conditions noted are these: Fibroblast, 96 h, LL29 fibroblasts from IPF patients, TGF-β1 20 ng/mL, 4 days, inhibition of fibrotic process. Put shortly: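 Read-out: fraction of αSMA-positive cells by high-content imaging, SYTOX-stained dead cells excluded, normalized to TGF-β1/DMSO wells. Cells got compound (10 μM–[…], 11 points) plus TGF-β1 20 ng/mL for 4 days. EC50 from triplicate curves; above 10 μM, % inhibition at 10 μM given.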

Where only a bound is given, the exact number is not on record here.

A word on the EC50: it is the concentration that produces a half-maximal response. Low values mean a more potent agent, high ones a less potent agent. One may read the inhibition as the change of the read-out against control, counted positive when it falls. In the case of `C1=C(c2ccc3[nH]nc(-c4nc5c(-c6ccc7c(c6)OCO7)ccnc5[nH]4)c3n2)CCNC1` [Compound 1109, 3-(7-(Benzo[d][1,3]dioxol-5-yl)-3H-imidazo[4,5-b]pyridin-2-yl)-5-(1,2,3,6-tetrahydropyridin-4-yl)-1H-pyrazolo[4,3-b]pyridine], the EC50 in test [1] is more than 10 µM; in test [2], more than 10 µM; in test [3] it was 6.2 µM. In addition, the inhibition at 10 µM is 20.5% in test [1] and 10.9% in test [2].
For `Cn1cc(-c2ccc3[nH]nc(-c4nc5c(-c6ccc(F)cc6)ccnc5[nH]4)c3n2)c(CO)n1` [Compound 1129, (4-(3-(7-(4-Fluorophenyl)-3H-imidazo[4,5-b]pyridin-2-yl)-1H-pyrazolo[4,3-b]pyridin-5-yl)-1-methyl-1H-pyrazol-3-yl)methanol], the 50% effective concentration (EC50) in test [1] was more than 10 µM; in test [2] it was more than 10 µM; in test [3], 0.342 µM. The inhibition at 10 µM is 24.8% in test [1] and 16.9% in test [2].
For the compound `Cn1cc(-c2ccc3[nH]nc(-c4nc5c(N6CCCCC6)ccnc5[nH]4)c3n2)c(CO)n1` [Compound 1134, (1-Methyl-4-(3-(7-(piperidin-1-yl)-3H-imidazo[4,5-b]pyridin-2-yl)-1H-pyrazolo[4,3-b]pyridin-5-yl)-1H-pyrazol-3-yl)methanol], the EC50 in test [1] is more than 10 µM; in test [2], more than 10 µM; in test [3], 0.149 µM. Also, the inhibition at 10 µM in test [1] worked out at 12.6%; in test [2], 18.1%.
As for `Cn1cc(-c2ccc3[nH]nc(-c4nc5c(-c6ccc7c(c6)OCO7)ccnc5[nH]4)c3n2)c(CO)n1` [Compound 1152, (4-(3-(7-(Benzo[d][1,3]dioxol-5-yl)-3H-imidazo[4,5-b]pyridin-2-yl)-1H-pyrazolo[4,3-b]pyridin-5-yl)-1-methyl-1H-pyrazol-3-yl)methanol], the EC50 is more than 10 µM in test [1], more than 10 µM in test [2] and 0.317 µM in test [3]. Moreover, the inhibition at 10 µM in test [1] is 28.4%; in test [2], 28.2%.

The values are drawn from patent publication US10329309B2, “3-(3H-imidazo[4,5-B]pyridin-2-yl)-1H-pyrazolo[4,3-B]pyridines and therapeutic uses thereof” (Samumed, LLC, priority 2015, dated 2019).
